# US4960788A, “Pyrrolidone-2 compounds and their use for central analgesic activity” (priority 1988, dated 1990)
# Like-named read-outs stand apart in the source and are kept apart here.
# Key:
# [1] = test system: guinea-pig isolated ileum; assay: morphine-like activity on guinea-pig isolated ileum (inhibition of electrically induced contractions); assay type: cell-based; details: inhibition of 50% of contraction, electric stimulation 0.1 Hz-0.5 msec.
# Description: The experiments were carried out according to the method described by Goldstein and Schultz (Br. J. Pharmacol., 48, 655, 1975) which is based on the capacity of the molecules showing an agonist activity on opioid receptors to inhibit the contractions of smooth muscles of guinea-pig ileum induced by electric stimulation (0.1 Hz-0.5 msec.).
# The pharmacological activity was expressed as the necessary concentration (mM) to inhibit 50% of contraction (IC50).
# [2] = hot plate test on mouse (central analgesic activity); assay type: in vivo
# Description: The compounds object of the present invention were tested in vivo in order to evaluate the central analgesic activity.
# The hot plate test was carried out on mouse according to the method described by Eddy et al. (J. Pharmacol., 98, 121, 1950). The compounds were administered by systemic route (oral and subcutaneous). The analgesic activity was expressed as 50% effective dose (ED50).
# In table 3 the results obtained for some representative compounds of formula I are reported.
# [3] = Jumping test on mouse (capacity to induce physical dependence); assay type: in vivo; details: Naloxone 10 mg/kg i.p. 4 hours after last administration, 15 minutes
# Description: The compounds object of the present invention were tested in vivo in order to evaluate the capacity to induce physical dependence. The Jumping test described by Sealens et al. [Committee on Problems of Drug Dependence, vol. 2, (1971), page 1310] was used.
# After 4 hours from the last administration, the animals were treated with Naloxone (10 mg/kg i.p.) and the number of jumps taken by the animals during the period of 15 minutes after the administration of Naloxone was counted.
# In table 4, for exemplifying purposes, the percentage of jumping animals obtained for a compound of formula I is reported.
# [4] = molecular target: T1, opioid receptors (Rattus norvegicus, UniProt P33535); assay: competition for binding of [^3 H]-dihydromorphine (DHM) to opioid receptors in rat-brain homogenate; set-up: species or system rat (Sprague-Dawley); details: 1 nM ^3 H-DHM; 25° C., 30 minutes; read-out: IC50 for specific binding of ^3 H-DHM to rat-brain homogenate
# T1 construct: opioid receptors in rat-brain homogenate; from tissue; host or cells: rat brain (Sprague-Dawley) without cerebellum, homogenate / crude membrane pellet
# T1 sequence (P33535 whole entry): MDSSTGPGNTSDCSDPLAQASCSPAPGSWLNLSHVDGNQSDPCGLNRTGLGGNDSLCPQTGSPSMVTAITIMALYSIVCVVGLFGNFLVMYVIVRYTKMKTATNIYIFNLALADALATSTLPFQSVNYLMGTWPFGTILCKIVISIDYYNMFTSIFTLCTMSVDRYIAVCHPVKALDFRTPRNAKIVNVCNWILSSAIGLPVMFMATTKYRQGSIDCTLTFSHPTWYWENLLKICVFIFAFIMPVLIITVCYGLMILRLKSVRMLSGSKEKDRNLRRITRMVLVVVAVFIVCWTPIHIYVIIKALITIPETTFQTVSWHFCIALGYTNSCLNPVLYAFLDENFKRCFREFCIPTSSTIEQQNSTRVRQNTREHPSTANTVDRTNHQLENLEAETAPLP
# Description: (1) Evaluation of the competition for binding of [^3 H]-dihydromorphine(DHM) to opioid receptors in rat-brain homogenate
# The experiments were carried out according to the method described by Simon et al. [Proc. Nat. Acad. Sci. U.S.A., 70, pp. 1947-1949, (1973)].
# Sprague-Dawley rats weighing about 150 g were used.
# The animals were decapitated and, after removal of cerebellum, the brains were homogenized in […] Tris-HCl buffer (pH 7.4) containing 0.32M saccharose. The homogenate was centrifugated at 1000 rpm for 10 minutes and the supranatant was centrifugated again at 20000 rpm for 20 minutes.
# The obtained pellet was suspended in a homogenization buffer without saccharose up to a protein concentration of 2 mg/ml. The incubating system consisted in: 500 μl of homogenate (1 mg of proteins), 390 μl of 50 mM Tris-HCl buffer (pH 7.4), 100 μl of a solution at different concentrations of the compounds of formula I or of 10 μM Naloxone for the determination of the aspecific binding and 10 μl of ^3 H-DHM (specific activity […], 1 nM final concentration). The mixture was incubated at 25° C. for 30 minutes after the addition of the radioactive binder.
# Then, the samples were filtered through Whatman GF/B filters, washed twice with 3 ml volumes of buffer and dried in oven at 70° C. Filters were put in scintillation vials with 15 ml of Filter Count (Packard) scintillation cocktail and the radioactivity was evaluated by a Packard Tricarb 4530 scintillation counter with 60% efficiency.
# The activity was expressed as inhibiting concentration (IC50) 50% of the binding of ^3 H-DHM.
# [5] = sc, subcutaneous, mouse hot plate test, read-out: Analgesic activity ED50 (C.L. 95%), s.c.
# [6] = oral, mouse hot plate test, read-out: Analgesic activity ED50 (C.L. 95%), os
SMILES,IC50 ([1]; Cavia porcellus) [nM],"ED50 [2, 5] [mg/kg]",other results
"CC[C@@H](C)N(C[C@@H](O)[C@H]1CCC(=O)N1Cc1ccccc1Cl)[C@H](C)CC [Compound 4, (1R)-1-[(5R)-1-[(2-chlorophenyl)methyl]-2-oxo-5-pyrrolidinyl]-2-[(2R,2'R)-disec.butylamino]ethanol]",8.7,3.8,–
"CC[C@@H](C)N(C[C@H](O)[C@@H]1CCC(=O)N1Cc1ccc(Cl)c(Cl)c1)[C@H](C)CC [Compound 20, (1S)-1-[(5S)-1-[(3,4-dichlorophenyl)methyl]-2-oxo-5-pyrrolidinyl]-2-[(2R,2'R)-disec.butylamino]ethanol]",0.23,0.28,–
"CC[C@@H](C)N(C[C@@H](O)[C@H]1CCC(=O)N1Cc1ccccc1Cl)[C@@H](C)CC [Compound 12, (1R)-1-[(5R)-1-[(2-chlorophenyl)methyl]-2-oxo-5-pyrrolidinyl]-2-[(2R,2'S)-disec.butylamino]ethanol]",83,–,–
"CC[C@@H](C)N(C[C@H](O)[C@H]1CCC(=O)N1Cc1ccccc1Cl)[C@H](C)CC [Compound 3, (1S)-1-[(5R)-1-[(2-chlorophenyl)methyl]-2-oxo-5-pyrrolidinyl]-2-[(2R,2'R)-disec.butylamino]ethanol]",4.6,–,–
"CC[C@@H](C)N(C[C@H](O)[C@@H]1CCC(=O)N1Cc1ccccc1Cl)[C@H](C)CC [Compound 1, (1S)-1-[(5S)-1-[(2-chlorophenyl)methyl]-2-oxo-5-pyrrolidinyl]-2-[(2R,2'R)-disec.butylamino]ethanol]",0.03,0.011,"Percentage of jumping animals (total dose 3.8 mg/kg i.p.) ([3]; total dose 3.8 mg/kg i.p.): 5%; IC50 [4]: 0.9 nM; ED50 [2, 6]: 2.6 mg/kg"
"CN1CC[C@]23c4c5ccc(O)c4O[C@H]2[C@@H](O)C=C[C@H]3[C@H]1C5 [morphine, reference compound]",–,–,"Percentage of jumping animals (total dose 156.0 mg/kg i.p.) ([3]; total dose 156.0 mg/kg i.p.): 80%; ED50 ([2]; Mus musculus, po, read-out: Analgesic activity ED50 (C.L. 95%), os): 18 mg/kg; ED50 ([2]; Mus musculus, sc, read-out: Analgesic activity ED50 (C.L. 95%), s.c.): 3.5 mg/kg"
"O=C1CC[C@@H]([C@@H](O)CN(C2CCCC2)C2CCCC2)N1Cc1ccccc1Cl [Compound 36, (1S)-1-[(5S)-1-[(2-chlorophenyl)methyl]-2-oxo-5-pyrrolidinyl]-2-dicyclopentylaminoethanol]",4.06,4.7,–
"CC[C@@H](C)N(C[C@H](O)[C@@H]1CCC(=O)N1Cc1cccc(OC)c1)[C@H](C)CC [Compound 18, (1S)-1-[(5S)-1-[(3-methoxyphenyl)methyl]-2-oxo-5-pyrrolidinyl]-2-[(2R,2'R)-disec.butylamino]ethanol]",0.28,0.07,–
"CC[C@@H](C)N(C[C@@H](O)[C@@H]1CCC(=O)N1Cc1ccccc1Cl)[C@@H](C)CC [Compound 7, (1R)-1-[(5S)-1-[(2-chlorophenyl)methyl]-2-oxo-5-pyrrolidinyl]-2-[(2R,2'S)-disec.butylamino]ethanol]",70,–,–
"CC[C@@H](C)N(CC(O)C1CCCC(=O)N1Cc1ccccc1Cl)[C@H](C)CC (stereo partly drawn) [Compound 43, 1-[2-[(2-chlorophenyl)methyl]-2-oxo-6-piperidinyl]-2-[(2R,2'R)-disec.butylamino]ethanol]",–,–,"IC50 [1]: 0.5 nM; Analgesic activity ED50 (C.L. 95%), s.c. ([2]; subcutaneous, mouse hot plate test): 0.1 mg/kg"
"CC(C)N(C[C@H](O)[C@@H]1CCC(=O)N1Cc1ccccc1Cl)C(C)C [Compound 34, (1S)-1-[(5S)-1-[(2-chlorophenyl)methyl]-2-oxo-5-pyrrolidinyl]-2-diisopropylaminoethanol]",44.7,–,–
"CC[C@@H](C)N(C[C@H](O)[C@@H]1CCC(=O)N1Cc1ccc(Br)cc1)[C@H](C)CC [Compound 26, (1S)-1-[(5S)-1-[(4-bromophenyl)methyl]-2-oxo-5-pyrrolidinyl]-2-[(2R,2'R)-disec.butylamino]ethanol]",0.04,0.03,–
"CC[C@@H](C)N(C[C@H](O)[C@@H]1CCC(=O)N1Cc1ccccc1)[C@H](C)CC [Compound 14, (1S)-1-[(5S)-2-oxo-1-(phenylmethyl)-5-pyrrolidinyl]-2-[(2R,2'R)-disec.butylamino]ethanol]",0.43,0.04,"IC50 [4]: 3.3 nM; ED50 [2, 6]: 6.5 mg/kg"
"CC[C@@H](C)N(C[C@@H](O)[C@@H]1CCC(=O)N1Cc1ccccc1F)[C@H](C)CC [Compound 15, (1R)-1-[(5S)-1-[(2-fluorophenyl)methyl]-2-oxo-5-pyrrolidinyl]-2-[(2R,2'R)-disec.butylamino]ethanol]",40,–,–
"CCC(CC)N(C[C@H](O)[C@@H]1CCC(=O)N1Cc1ccccc1Cl)C(CC)CC [Compound 40, (1S)-1-[(5S)-1-[(2-chlorophenyl)methyl]-2-oxo-5-pyrrolidinyl]-2-[bis(1-ethylpropyl)amino]ethanol]",60,–,–
"CC[C@@H](C)N(C[C@H](O)[C@@H]1CCC(=O)N1Cc1ccccc1Cl)C(C)C [Compound 38, (1S)-1-[(5S)-1-[(2-chlorophenyl)methyl]-2-oxo-5-pyrrolidinyl]-2-[[(R)-sec.butyl]isopropylamino]ethanol]",21.5,1.1,–
"CC[C@H](C)N(C[C@@H](O)[C@@H]1CCC(=O)N1Cc1ccccc1Cl)[C@@H](C)CC [Compound 5, (1R)-1-[(5S)-1-[(2-chlorophenyl)methyl]-2-oxo-5-pyrrolidinyl]-2-[(2S,2'S)-disec.butylamino]ethanol]",50,–,–
"CC[C@@H](C)N(C[C@H](O)[C@@H]1CCC(=O)N1Cc1cc(Br)no1)[C@H](C)CC [Compound 22, (1S)-1-[(5S)-1-(3-bromo-5-isoxazolylmethyl)-2-oxo-5-pyrrolidinyl]-2-[(2R,2'R)-disec.butylamino]ethanol]",4.96,1,IC50 [4]: 9.4 nM
"CC[C@@H](C)N(C[C@H](O)[C@@H]1CCC(=O)N1Cc1ccccc1Cl)[C@@H](C)CC [Compound 8, (1S)-1-[(5S)-1-[(2-chlorophenyl)methyl]-2-oxo-5-pyrrolidinyl]-2-[(2R,2'S)-disec.butylamino]ethanol]",44,1.4,–
"CC[C@@H](C)N(C[C@H](O)[C@@H]1CCC(=O)N1Cc1ccccc1F)[C@H](C)CC [Compound 16, (1S)-1-[(5S)-1-[(2-fluorophenyl)methyl]-2-oxo-5-pyrrolidinyl]-2-[(2R,2'R)-disec.butylamino]ethanol]",0.29,0.03,"IC50 [4]: 2.5 nM; ED50 [2, 6]: 5.8 mg/kg"
"CC[C@@H](C)N(C[C@@H](O)[C@@H]1CCC(=O)N1Cc1ccc(Cl)c(Cl)c1)[C@H](C)CC [Compound 19, (1R)-1-[(5S)-1-[(3,4-dichlorophenyl)methyl]-2-oxo-5-pyrrolidinyl]-2-[(2R,2'R)-disec.butylamino]ethanol]",0.77,–,–
"CC[C@@H](C)N(C[C@H](O)[C@@H]1CCC(=O)N1Cc1cccc(C(F)(F)F)c1)[C@H](C)CC [Compound 24, (1S)-1-[(5S)-2-oxo-1-[(3-trifluoromethylphenyl)methyl]-5-pyrrolidinyl]-2-[(2R,2'R)-disec.butylamino]ethanol]",2.9,0.5,–
